According to US11649233B2, “Halo-allylamine SSAO/VAP-1 inhibitor and use thereof” (Nanjing Transthera Biosciences Co., Ltd., priority 2017, dated 2023):
Where a name gives a salt, the structure may show the parent alone.

What was measured:
[1] = Stability test in human liver microsome; assay type: in vitro ADME; conditions: human liver microsome 0.5 mg protein/mL, compound 1 μM, β-NADPH
Experimental: Biological Example 3: Stability Test of the Compounds of the Present Invention in Human Liver Microsome
The composition of the incubation system:
(1) The liver microsome (20 mg protein/mL) was removed from the −80° C. refrigerator, pre-incubated in a 37° C. water bath constant temperature oscillator for 3 minutes, and thawed for use.
(2) A mixed solution of the incubation system (excluding compound and β-NADPH) according to the above “composition of the incubation system” for the test was prepared, and pre-incubated in a 37° C. water bath constant temperature oscillator for 2 minutes.
(3) Control group (excluding β-NADPH): 30 μL of water and 30 μL of compound working solution (concentration: 10 μM) were added to 240 μL of the mixed solution of the incubation system of step (2), and vortexed for 30 seconds to mix well. The total reaction volume was 300 μL. A duplicate sample was prepared. The sample was incubated in a 37° water bath constant temperature oscillator. The timing began and the sampling time points were set at 0 minute and 60 minutes.
(4) Sample group: 70 μL β-NADPH solution (10 mM) and 70 μL compound working solution (concentration: 10 μM) were added to 560 μL of the mixed solution in step (2). The total reaction volume was 700 μL. The resulting mixture was vortexed for 30 seconds to mix well. A duplicate sample was prepared. The sample was incubated in a 37° C. water bath constant temperature oscillator. The timing began and the sampling time points were set at 0 minute, 5 minutes, 10 minutes, 20 minutes, 30 minutes, and 60 minutes after timing.
(5) After vortexing for 3 minutes, the sample was centrifuged at 12000 rpm for 5 minutes.
(6) 150 μL of water was added to 50 μL of the supernatant. The resulting mixture was evenly mixed in vortex, and the sample LC/MS/MS analysis was performed.

MAO-B = MAO-B (Homo sapiens (Human), UniProt P27338); test: Selectivity of the compounds for MAO-B enzyme (MAO-Glo); assay type: biochemical; conditions: 60 minutes pre-incubation at 37° C.
Sequence of MAO-B (P27338 whole entry): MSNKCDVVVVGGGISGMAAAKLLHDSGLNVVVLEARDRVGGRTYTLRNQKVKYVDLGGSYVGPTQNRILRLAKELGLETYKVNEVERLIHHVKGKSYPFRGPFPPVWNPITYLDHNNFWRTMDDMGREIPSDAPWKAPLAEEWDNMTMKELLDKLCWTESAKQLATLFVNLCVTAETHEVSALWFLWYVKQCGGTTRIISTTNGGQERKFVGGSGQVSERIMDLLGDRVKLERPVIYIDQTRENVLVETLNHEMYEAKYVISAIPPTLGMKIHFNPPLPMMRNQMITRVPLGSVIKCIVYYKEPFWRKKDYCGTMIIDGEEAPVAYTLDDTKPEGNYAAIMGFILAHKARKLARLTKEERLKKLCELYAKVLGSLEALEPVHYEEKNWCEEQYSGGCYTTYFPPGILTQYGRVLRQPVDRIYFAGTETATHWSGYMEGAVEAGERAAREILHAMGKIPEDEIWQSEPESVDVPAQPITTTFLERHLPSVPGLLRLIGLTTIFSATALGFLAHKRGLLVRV
Experimental: (§1) 2. Selectivity of the Compounds for MAO-A/B Enzymes
(§2) Microplate reader (Perkin Elmer, Envision), 384 well plates (Perkin Elmer), centrifuge (Eppendorf), MAO-Glo™ (Promega), MAO-A (Active Motif) and MAO-B (Active Motif).
(§3) An appropriate amount of the test compound was dissolved in DMSO to 10 mM and stored. Before the experiment, an appropriate amount of 10 mM test compound mother liquor was diluted to 100 μM solution with DMSO. Then 4-fold gradient dilution with DMSO was performed, and 6 concentration gradients were formed.
(§4) The MAO-A/B mother liquor was diluted to 2×concentration enzyme solution with the assay buffer solution for the MAO-A/B.
(§5) The mother liquor of the MAO-A/B substrate mixed solution was diluted to 2×concentration substrate mixed solution with the assay buffer solution for the MAO-A/B.
(§6) 200 nL of compound solutions of different concentrations or solvent
(§7) and 10 μL of 2×MAO-A/B enzyme solution were added to a 384-well plate, evenly mixed by oscillation, and incubated at 37° C. for 60 minutes. Then 10 μL of 2×substrate mixed solution was added to each well, and immediately the detection was performed with the microplate reader in a condition of an exciting light at 535 nm, an emitting light at 587 nm, the fluorescence intensity for detecting each well of 5 minutes/run, and a total detection time of 25 minutes.
(§8) The inhibition rate was calculated according to the following formula: V(RFU/min)=(Ft(RFU)−F0(RFU))/(Time(min)) Inhibition rate (%)=100%−Vcmpd(RFU/min)/V max(RFU/min)×100%
(§9) V: the fluorescence change rate; Ft: fluorescence reading at the time point t; F0: fluorescence reading at the time point 0; Time: time period t; Vcmpd: the fluorescence change rate of the test compound; Vmax: the Max well fluorescence change rate.
(§10) The log values of the concentrations were taken as the X-axis and the percent inhibition rates were taken as the Y-axis, and the dose-effect curve was fitted using the log(inhibitor) vs. response-Variable slope of the analytical software GraphPad Prism 5 to obtain the IC50 value of each compound for enzyme activity.

rhVAP-1 [2] = target: T1, rhVAP-1 (Homo sapiens (Human), UniProt Q16853); test: Inhibition activity of the compounds on the rhVAP-1 enzyme (Amplex Red/HRP fluorescence, benzylamine substrate); assay type: biochemical; conditions: 30 minutes pre-incubation at 37° C.
T1 sequence (Q16853 whole entry): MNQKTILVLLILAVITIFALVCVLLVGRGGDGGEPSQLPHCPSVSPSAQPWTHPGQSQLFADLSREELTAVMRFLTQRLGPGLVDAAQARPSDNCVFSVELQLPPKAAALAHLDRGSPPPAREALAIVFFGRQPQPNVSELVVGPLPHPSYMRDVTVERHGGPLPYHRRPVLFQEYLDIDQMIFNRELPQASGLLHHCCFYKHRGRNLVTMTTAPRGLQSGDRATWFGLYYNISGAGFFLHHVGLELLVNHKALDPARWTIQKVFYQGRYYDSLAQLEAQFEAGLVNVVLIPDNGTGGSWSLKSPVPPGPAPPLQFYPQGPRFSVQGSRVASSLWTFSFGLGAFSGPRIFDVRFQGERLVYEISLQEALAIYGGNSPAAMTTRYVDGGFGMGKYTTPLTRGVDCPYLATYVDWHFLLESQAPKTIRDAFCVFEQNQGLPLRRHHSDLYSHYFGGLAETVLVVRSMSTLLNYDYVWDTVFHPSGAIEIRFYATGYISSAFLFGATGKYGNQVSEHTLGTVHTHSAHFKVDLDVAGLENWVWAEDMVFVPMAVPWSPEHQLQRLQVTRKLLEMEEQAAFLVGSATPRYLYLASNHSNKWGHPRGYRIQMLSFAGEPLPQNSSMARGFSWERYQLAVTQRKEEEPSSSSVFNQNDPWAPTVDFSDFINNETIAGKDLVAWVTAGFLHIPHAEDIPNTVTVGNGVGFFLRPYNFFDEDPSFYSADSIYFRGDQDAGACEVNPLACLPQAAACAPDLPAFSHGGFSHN
Experimental: 1. Inhibition Activity of the Compounds on the rhVAP-1 Enzyme
Multifunctional microplate reader (MD, FlexStation 3), black bottom-impermeable 96-well plate (Corning), rhVAP-1 (PeproTech)
as §3, with “10” for “100”, “3-fold” for “4-fold”, “10” for “6”
An appropriate amount of protein diluent was added to the rhVAP-1 powder to obtain 1 mg/mL of the mother liquor for storage. Before the experiment, the dilution with PBS provided a 4×concentration of the enzyme solution.
An appropriate amount of benzylamine was added to PBS and dissolved to obtain 200 mM of the benzylamine solution. 2 mM Amplex Red mother liquor and 500 U/mL HRP mother liquor were added. The dilution with PBS provided 2×concentration substrate mixed solution.
(§11) First, 10 μL of compound solutions of different concentrations, 25 μL of 4×rhVAP-1 enzyme solution and 15 μL of PBS were added to a 96-well plate, evenly mixed by oscillation, and incubated at 37° C. for 30 minutes. Then 50 μL of 2×substrate mixed solution was added to each well, and immediately the detection was performed with the microplate reader in a condition of an exciting light at 565 nm, an emitting light at 590 nm, the fluorescence intensity for detecting each well of 5 minutes/run, and a total detection time of 25 minutes. The inhibition rate was calculated according to the following formula: V(RFU/min)=(Ft(RFU)−F0(RFU))/(Time(min)) Inhibition rate (%)=100%−Vcmpd(RFU/min)/V max(RFU/min)×100%
as §9, §10

MAO-A = MAO-A (Homo sapiens (Human), UniProt P21397); test: Selectivity of the compounds for MAO-A enzyme (MAO-Glo); assay type: biochemical; conditions: 60 minutes pre-incubation at 37° C.
Sequence of MAO-A (P21397 whole entry): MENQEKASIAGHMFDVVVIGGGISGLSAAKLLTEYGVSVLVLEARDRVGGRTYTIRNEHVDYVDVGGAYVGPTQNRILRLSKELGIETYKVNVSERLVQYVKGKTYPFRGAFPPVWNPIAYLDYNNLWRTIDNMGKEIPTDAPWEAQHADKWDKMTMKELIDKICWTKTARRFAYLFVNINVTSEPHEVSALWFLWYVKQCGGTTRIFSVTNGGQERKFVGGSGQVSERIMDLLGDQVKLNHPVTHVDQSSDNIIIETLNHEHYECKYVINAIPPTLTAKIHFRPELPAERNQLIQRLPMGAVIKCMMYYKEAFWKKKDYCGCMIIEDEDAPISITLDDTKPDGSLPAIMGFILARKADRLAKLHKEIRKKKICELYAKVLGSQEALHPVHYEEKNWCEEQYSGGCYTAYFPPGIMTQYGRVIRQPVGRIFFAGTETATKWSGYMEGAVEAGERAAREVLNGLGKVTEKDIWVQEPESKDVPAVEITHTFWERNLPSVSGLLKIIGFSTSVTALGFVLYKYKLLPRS
Experimental: as §1, §2, §3, §4, §5, §6, §7, §8, §9, §10

rhVAP-1 [3] = target: T1, rhVAP-1; test: Time-dependent inhibition assay for the rhVAP-1 enzyme; assay type: biochemical
Experimental: Biological example 4: Time-dependent inhibition assay for the rhVAP-1 enzyme
After incubation of the test substances at corresponding time intervals according to Table 4, the activity was measured at each time point in the same manner as in the rhVAP-1 enzymatic test method of biological example 1.
as §11, with “Specifically,” for “First,”, “concentrations or solvent,” for “concentrations,”, “0 minutes, 3 minutes, 6 minutes, 9 minutes and 12” for “30”, “minutes.” for “minutes. The inhibition rate was calculated according to the following formula: V(RFU/min)=(Ft(RFU)−F0(RFU))/(Time(min)) Inhibition rate (%)=100%−Vcmpd(RFU/min)/V max(RFU/min)×100%”

SMILES	ClH [1]	IC50 (MAO-B) [µM]	IC50 (rhVAP-1 [2]) [µM]	other results
NC/C(=C/F)COc1ccc2c(n1)CCN(C1CC1)C2=O [Compound 23, (Z)-2-((2-(aminomethyl)-3-fluoroallyl)oxy)-6-cyclopropyl-7,8-dihydro-1,6-naphthyridin-5(6H)-one]	0.278 L/h/kg	–	–	–
Cl.NC/C(=C\F)COc1ccc2c(c1)CN(C1CC1)C2=O [Hydrochloride of Compound 16, (E)-5-((2-(aminomethyl)-3-fluoroallyl)oxy)-2-cyclopropyl isoindolin-1-one]	0.0108 L/h/kg	2.8	0.024	–
NC/C(=C/F)COc1ccc2c(c1)C(=O)N(C1CC1)C2=O [Hydrochloride of Compound 31, (Z)-5-((2-(aminomethyl)-3-fluoroallyl)oxy)-2-cyclopropylisoindolin-1,3-dione]	–	–	0.011	–
NC/C(=C\F)COc1ccc2c(n1)CN(C1CC1)C2=O [Trifluoroacetate of Compound 24, (E)-2-((2-(aminomethyl)-3-fluoroallyl)oxy)-6-cyclopropyl-6,7-dihydro-5H-pyrrolo[3,4-b]pyridin-5-one]	→0 mL/min/kg	37	0.024	–
NC/C(=C/F)COc1ccc2c(n1)CN(C1CC1)C2=O [Trifluoroacetate of Compound 25, (Z)-2-((2-(aminomethyl)-3-fluoroallyl)oxy)-6-cyclopropyl-6,7-dihydro-5H-pyrrolo[3,4-b]pyridin-5-one]	–	13	0.025	–
Cl.NC/C(=C\F)COc1cc2c(cn1)C(=O)N(C1CC1)C2 [Hydrochloride of Compound 21, (E)-6-((2-(aminomethyl)-3-fluoroallyl)oxy)-2-cyclopropyl-1,2-dihydro-3H-pyrrolo-[3,4-c]pyridin-3-one]	0.297 L/h/kg	14	0.021	IC50 (MAO-A): > 100 µM
Cl.NC/C(=C/F)COc1ccc2c(c1)CN(C1CC1)C2=O [Hydrochloride of Compound 29, (Z)-5-((2-(aminomethyl)-3-fluoroallyl)oxy)-2-cyclopropylisoindolin-1-one]	0.251 L/h/kg	4.1	0.025	–
NC/C(=C/F)COc1ccc2c(n1)CCN(C1CC1)C2=O [Trifluoroacetate of Compound 23, (Z)-2-((2-(aminomethyl)-3-fluoroallyl)oxy)-6-cyclopropyl-7,8-dihydro-1,6-naphthyridin-5(6H)-one]	–	19	0.014	IC50 (rhVAP-1 [3]; pre-incubation 0 minute): 0.206 µM; IC50 (rhVAP-1 [3]; pre-incubation 3 minutes): 0.0186 µM; IC50 (rhVAP-1 [3]; pre-incubation 6 minutes): 0.0152 µM; IC50 (rhVAP-1 [3]; pre-incubation 9 minutes): 0.014 µM; IC50 (rhVAP-1 [3]; pre-incubation 12 minutes): 0.0125 µM; IC50 (MAO-A): 10 µM
NC/C(=C\F)COc1cnc2c(c1)CN(C1CC1)C2=O [Hydrochloride of Compound 27, (E)-3-((2-(aminomethyl)-3-fluoroallyl)oxy)-6-cyclopropyl-5,6-dihydro-7H-pyrrolo[3,4-b]pyridin-7-one]	–	38	0.016	–
NC/C(=C/F)COc1cc2c(cn1)C(=O)N(C1CC1)C2 [Trifluoroacetate of Compound 33, (Z)-6-((2-(aminomethyl)-3-fluoroallyl)oxy)-2-cyclopropyl-1,2-dihydro-3H-pyrrolo-[3,4-c]pyridin-3-one]	–	8.6	0.014	–
Cl.NC/C(=C/F)COc1cnc2c(c1)CN(C1CC1)C2=O [Hydrochloride of Compound 28, (Z)-3-((2-(aminomethyl)-3-fluoroallyl)oxy)-6-cyclopropyl-5,6-dihydro-7H-pyrrolo[3,4-b]pyridin-7-one]	→0 mL/min/kg	20	0.014	–
NC/C(=C\F)COc1ccc2c(n1)CCN(C1CC1)C2=O [Trifluoroacetate of Compound 26, (E)-2-((2-(aminomethyl)-3-fluoroallyl)oxy)-6-cyclopropyl-7,8-dihydro-1,6-naphthyridin-5(6H)-one]	–	8.8	0.051	–
NC/C(=C\F)COc1cc2c(cn1)C(=O)N(C1CC1)CC2 [Compound 22, (E)-6-((2-(aminomethyl)-3-fluoroallyl)oxy)-2-cyclopropyl-3,4-dihydro-2,7-naphthyridin-1(2H)-one]	0.176 L/h/kg	–	–	–
CCN(CC)C(=O)c1ccc(OC/C(=C/F)CN)cn1.Cl [Hydrochloride of Compound 19, (E)-5-((2-(aminomethyl)-3-fluoroallyl)oxy)-N,N-diethylpicolinamide]	→0 mL/min/kg	–	0.021	–
NC/C(=C/F)COc1cc2c(cn1)C(=O)N(C1CC1)CC2 [Trifluoroacetate of Compound 32, (Z)-6-((2-(aminomethyl)-3-fluoroallyl)oxy)-2-cyclopropyl-3,4-dihydro-2,7-naphthyridine-1(2H)-one]	–	6.6	0.011	–
NC/C(=C/F)COc1ccc2c(c1)CCN(C1CC1)C2=O [Hydrochloride of Compound 34, (Z)-6-((2-(aminomethyl)-3-fluoroallyl)oxy)-2-cyclopropyl-3,4-dihydroisoquinolin-1(2H)-one]	–	8.4	0.006	–
NC/C(=C\F)COc1ccc2c(c1)C(=O)N(C1CC1)C2=O [Hydrochloride of Compound 30, (E)-5-((2-(aminomethyl)-3-fluoroallyl)oxy)-2-cyclopropyl isoindolin-1,3-dione]	–	5.8	0.032	–
NC/C(=C\F)COc1cnc2c(c1)CCNC2=O [Hydrochloride of Compound 8, (E)-3-((2-(aminomethyl)-3-fluoroallyl)oxy)-6,7-dihydro-1,7-naphthyridin-8(5H)-one]	–	> 100	0.03	–
